System: MM.1S tumor cells
Experiment: Myeloma MM.1S mouse xenograft model
Type: in vivo
Description: The mice were irradiated (200 rads) using a Co60 irradiator source. After 24 his, each mouse was inoculated subcutaneously with 5×10^6 MM.1S tumor cells in 0.1 ml PBS for tumor development. Treatments were started when the tumor volume reached 100 mm^3. Each treatment group consisted of 10 mice. The compound of Example 1 was administrated to the tumor-bearing mice according to a specific predetermined regimen.

[1] = 100 mg/kg p.o, days 1, 3, 5/wk×4 wks

Cc1ncc(C(=O)N[C@@H](COC(F)F)C(=O)N[C@@H](COC(F)F)C(=O)N[C@@H](Cc2ccccc2)C(=O)[C@@]2(C)CO2)s1 [Example 1, 2-methyl-thiazole-5-carboxylic acid ((S)-1-{(S)-1-[(S)-1-benzyl-2-((R)-2-methyloxiranyl)-2-oxo-ethylcarbamoyl]-2-difluoromethoxyethylcarbamoyl}-2-difluoromethoxyethyl)-amide]
antitumor activity vs. control (50 mg/kg p.o, qd×28 days): statically significant antitumor activity | gross adverse effects including reductions in body weight or alterations in behaviour (50 mg/kg p.o, qd×28 days): no observed gross adverse effects | antitumor activity vs. control [1]: statically significant antitumor activity | gross adverse effects including reductions in body weight or alterations in behaviour [1]: no observed gross adverse effects

Source: patent US9441012B2, “Fluorinated epoxyketone-based compounds and uses thereof as proteasome inhibitors” (FLUORINOV PHARMA INC., priority 2012, dated 2016)
